From BindingDB's records for patent US11590142 (Bugworks Research, 2023)

Target: DNA gyrase (Escherichia coli, UniProt P0AES4+P0AES6)
Assay: Enzyme Inhibition Assay
Protocol: The reactions were then started with the addition of 60 ng relaxed pBR322 plasmid DNA and continued for 45 min at 37° C. The reaction mixture contained 35 mM Tris.HCl (pH 7.5), 24 mM KCl, 1.8 mM spermidine, 4 mM MgCl2, 2 mM DTT, 6.5% (w/v) glycerol, 0.1 mg/mL BSA, and 1 mM ATP. The reaction was then stopped by addition of 0.75 L of Proteinase K (20 mg/mL) and 3 μL of 2% SDS and further incubated at 37° C. for 30 min. This was followed by the addition of 4 μL of STEB (40% (w/v) sucrose, 100 mM Tris-HCl pH8, 1 mM EDTA, 0.5 mg/ml Bromophenol Blue), and the supercoiled/relaxed forms of plasmid DNA were separated by agarose gel electrophoresis. The 1% agarose gels were run for 3 h at 4V/cm in 1×TAE (40 mM Tris, 20 mM Acetic acid, 1 mM EDTA). To visualize the DNA the gels were stained for 10 min with 0.7 g/mL ethidium bromide and excess dye was removed by several washes with water. IC50 were determined by quantifying the supercoiled and relaxed DNA in each of the reactions from a gel image by a densitometric method using the Quantity One Software (Bio-rad).

| SMILES | IC50 [nM] |
| --- | --- |
| Cn1c(=O)cnc2ccc(OCCNC[C@H]3CN(c4ccc5c(n4)NC(=O)CO5)C(=O)O3)nc21 [US11590142, Compound 3] | 47 |
| Cn1c(=O)ccc2ncc(OCCNC[C@H]3CN(c4ccc5c(n4)NC(=O)CO5)C(=O)O3)nc21 [US11590142, Compound 5] | 32 |
